The source of these data is article PMC2999670 (The Journal of steroid biochemistry and molecular biology, 2010).

Changes are numbered by the printed parent chain. Like-named read-outs stand apart in the source and are kept apart here.

In assay [1] the target is T1, human 3β-HSD2 (Homo sapiens, UniProt P26439).
T1 sequence (P26439 1-372): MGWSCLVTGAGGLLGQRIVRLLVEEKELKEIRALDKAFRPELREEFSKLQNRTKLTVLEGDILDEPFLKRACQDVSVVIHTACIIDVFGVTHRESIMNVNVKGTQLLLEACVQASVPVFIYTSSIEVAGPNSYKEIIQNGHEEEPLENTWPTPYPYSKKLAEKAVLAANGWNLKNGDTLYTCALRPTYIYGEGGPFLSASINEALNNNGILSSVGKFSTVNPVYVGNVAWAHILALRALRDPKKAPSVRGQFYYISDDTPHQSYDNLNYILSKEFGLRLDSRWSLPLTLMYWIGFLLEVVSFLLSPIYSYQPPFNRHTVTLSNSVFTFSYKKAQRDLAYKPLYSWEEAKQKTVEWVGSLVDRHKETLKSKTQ
Kind of assay: Michaelis-Menten kinetics of 3β-HSD substrate. It counts as biochemical. The settings on record: pH 7.4.

For assay [2], the target named is T2, human 3β-HSD1 (Homo sapiens, UniProt P14060). Briefly: Michaelis-Menten kinetics of 3β-HSD substrate. The settings on record: pH 7.4. It counts as biochemical.
The target of assay [3] is T3, H156Y-1 mutant of 3β-HSD1 (Homo sapiens, UniProt P14060, H157Y).
T3 sequence (P14060 1-373 H157Y): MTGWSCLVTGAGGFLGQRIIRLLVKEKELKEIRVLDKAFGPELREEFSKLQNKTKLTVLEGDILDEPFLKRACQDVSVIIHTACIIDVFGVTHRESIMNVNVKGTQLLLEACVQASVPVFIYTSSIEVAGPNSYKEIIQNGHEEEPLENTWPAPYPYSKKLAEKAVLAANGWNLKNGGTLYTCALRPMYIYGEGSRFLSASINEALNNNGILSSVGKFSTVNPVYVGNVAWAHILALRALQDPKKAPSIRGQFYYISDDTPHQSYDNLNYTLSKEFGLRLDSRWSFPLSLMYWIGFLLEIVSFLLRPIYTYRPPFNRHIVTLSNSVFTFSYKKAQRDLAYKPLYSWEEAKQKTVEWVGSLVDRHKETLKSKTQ
Briefly: Michaelis-Menten kinetics of 3β-HSD substrate. It counts as biochemical. The settings on record: Table 4; substrate DHEA 3-100 μM, NAD+ 200 μM, 27° C, pH 7.4.

For assay [4], the target named is T4, P195R-2 mutant of 3β-HSD2 (Homo sapiens, UniProt P26439, P195R).
T4 sequence (P26439 1-372 P195R): T1 sequence (P26439 1-372) with P195R
Kind of assay: Michaelis-Menten kinetics of 3β-HSD substrate. Type of assay: biochemical. The settings on record: Table 2, substrate DHEA 1–100 μM, NAD+ 0.2 mM, pH 7.4.

Assay [5] concerns the target T5, R195P-1 mutant of 3β-HSD1 (Homo sapiens, UniProt P14060, R196P).
T5 sequence (P14060 1-373 R196P): T3 sequence (P14060 1-373 H157Y) with Y157H, R196P
Briefly: Michaelis-Menten kinetics of 3β-HSD substrate. Type of assay: biochemical. The settings on record: Table 2, substrate DHEA 1–100 μM, NAD+ 0.2 mM, pH 7.4.

For assay [6], the system named is MCF-7 Tet-off 3β-HSD1 aromatase cells. The settings on record: cited from earlier work.
In assay [7] the test system is other enzymes in steroidogenesis (e.g., 17β-HSD). The settings on record: cited from earlier work.
Assay [8] deals with T2, human 3β-HSD1. Briefly: Inhibition of 3β-HSD activity of purified enzyme, Dixon analysis. It counts as biochemical.
Assay [9] concerns the target T1, human 3β-HSD2. Described as above. It counts as biochemical.
For assay [10], the target named is T3, H156Y-1 mutant of 3β-HSD1. The assay is described as above. Type of assay: biochemical.
The test system of assay [11] is MCF-7 Tet-off 3β-HSD2 aromatase cells. The settings on record: read-out: IC50, proliferation; DHEA-stimulated growth; cited from earlier work.
The subject of assay [12] is MCF-7 Tet-off 3β-HSD1 aromatase cells. The settings on record: read-out: EC50, stimulation of growth; cited from earlier work.
The subject of assay [13] is MCF-7 Tet-off 3β-HSD2 aromatase cells. The settings on record: read-out: EC50, stimulation of growth; cited from earlier work.
Assay [14] has the same test system. Briefly: Inhibition of DHEA-stimulated proliferation. Type of assay: cell-based, human. The settings on record: for IC50: Homo sapiens, MCF7, 240 h, read-out: IC50, proliferation; for inhibition of growth in the presence of doxycycline: doxycycline 10 ng/ml, DHEA 5.0 nM.
For the next assay, the system named is MCF-7 cells. Kind of assay: Proliferation in the absence of DHEA substrate. It counts as cell-based, human.
Assay [15] relates to MCF-7 Tet-off 3β-HSD1 aromatase cells. Briefly: Inhibition of DHEA-stimulated proliferation. The settings on record: for inhibition of growth in the presence of doxycycline: doxycycline 10 ng/ml, DHEA 5.0 nM.
For assay [16], the target named is T5, R195P-1 mutant of 3β-HSD1. Kind of assay: Inhibition of 3β-HSD activity of purified enzyme, Dixon analysis. Type of assay: biochemical.
Setting [17] is: Table 2, substrate DHEA 1–100 μM, NAD+ 0.2 mM.
Setting [18] is: Table 4, substrate DHEA 3-100 μM, NAD+ 200 μM, 27° C.
The mark [19] stands for this setting: ratio of proliferation IC50 values.

T2 sequence (P14060 whole entry): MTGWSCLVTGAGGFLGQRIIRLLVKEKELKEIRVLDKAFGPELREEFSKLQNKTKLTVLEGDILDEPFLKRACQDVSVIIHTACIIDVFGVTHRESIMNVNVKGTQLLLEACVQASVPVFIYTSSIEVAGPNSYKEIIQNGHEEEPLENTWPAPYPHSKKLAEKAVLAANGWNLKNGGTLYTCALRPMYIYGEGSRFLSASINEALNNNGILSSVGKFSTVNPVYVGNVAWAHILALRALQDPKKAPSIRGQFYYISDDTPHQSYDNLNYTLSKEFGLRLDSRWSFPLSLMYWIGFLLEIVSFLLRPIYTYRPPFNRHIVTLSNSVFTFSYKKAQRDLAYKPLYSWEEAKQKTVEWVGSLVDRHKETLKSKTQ

As for `C[C@]12CC[C@H](O)CC1=CC[C@@H]1[C@@H]2CC[C@]2(C)C(=O)CC[C@@H]12` [DHEA, dehydroepiandrosterone], the 3β-HSD kcat worked out at 0.145 s⁻¹ on human 3β-HSD2 [1] (setting [17]); 0.118 s⁻¹ on human 3β-HSD2 [1] (setting [18]); 0.055 s⁻¹ at human 3β-HSD1 [2] (setting [17]); 0.055 s⁻¹ at human 3β-HSD1 [2] (setting [18]); 0.118 s⁻¹ in assay [3]; 0.0933 s⁻¹ in assay [4]. Besides, the 3β-HSD kcat in assay [5] stood at 0.128 s⁻¹. For the same compound, the Michaelis constant (Km) stood at 7.7 µM in [4] (read-out: 3β-HSD Km) and 10.7 µM in assay [5] (read-out: 3β-HSD Km).
For the compound `C[C@]1(O)CC[C@H]2[C@@H]3CC[C@@]45O[C@]4(C)C(O)=C(C#N)C[C@]5(C)[C@H]3CC[C@@]21C` [epostane], in [6] (setting [19]), the “fold higher affinity vs MCF7 Tet-off 3β-HSD2 aromatase cells” value is recorded as 12 fold. For the same compound, the IC50 was 200 nM in assay [6] (read-out: IC50, proliferation, DHEA-stimulated growth) and 2400 nM in [11]. Besides, in [7], the “effect on other enzymes in steroidogenesis” value was “no effect”. Further, the Ki at human 3β-HSD1 [8] is 70 nM; at human 3β-HSD2 [9] it was 980 nM; in assay [10], 1180 nM.
As for `C[C@]12CC[C@@H]3c4ccc(O)cc4CC[C@H]3[C@@H]1CC[C@@H]2O` [estradiol], the EC50 in [12] was 0.24 nM; in assay [13], 0.32 nM.
Take `C[C@]12CC[C@@H]3c4ccc(O)cc4CC[C@H]3[C@@H]1CCC2=O` [estrone]: the EC50 in [12] was 0.39 nM; in [13], 0.34 nM.
Take `N#Cc1ccc(C(c2ccc(C#N)cc2)n2cncn2)cc1` [letrozole]: in [14], the IC50 worked out at 0.9 nM and the “inhibition of growth in the presence of doxycycline” value (“inhibition of growth” for short) is “little change in rate”. For the same compound, the “stimulation of proliferation / ER-agonist activity” value in the assay with MCF-7 cells is given as “Neither trilostane nor letrozole stimulated the proliferation”. In addition, the “inhibition of growth” value in assay [15] is “little change in rate”.
For `C[C@]12CC[C@H]3[C@@H](CC[C@@]45O[C@@H]4C(O)=C(C#N)C[C@]35C)[C@@H]1CC[C@@H]2O` [trilostane, 2α-cyano-4α ,5α-epoxy-17β-ol-androstane-3-one], in assay [7], the “effect on other enzymes in steroidogenesis” value is “no effect”. On human 3β-HSD1 [8] (competitive 3β-HSD1 vs noncompetitive 3β-HSD2), the “fold lower Ki for 3β-HSD1 compared to 3β-HSD2” value amounted to 16 fold. In addition, affinity in [16] was put at a Ki of 2560 ± 220 nM. Moreover, the mode of inhibition entry (in [16] (Dixon analysis); on human 3β-HSD2 [9] (Dixon analysis)) was “noncompetitive” each time. The IC50 amounted to 4900 nM in [14] and 300 nM in assay [15] (Homo sapiens, MCF7, 240 h, read-out: IC50, proliferation). Besides, the “inhibition of growth” value in assay [14] and in assay [15] was “greatly attenuated” each time. In the assay with MCF-7 cells, the “stimulation of proliferation / ER-agonist activity” value is listed as “Neither trilostane nor letrozole stimulated the proliferation”. In addition, in assay [15] (setting [19]), the “fold higher affinity vs MCF7 Tet-off 3β-HSD2 aromatase cells” value was found to be 16 fold.

Usually Km stands for the substrate concentration at which the rate is half of its maximum. For orientation: Ki means a dissociation constant, usually derived from enzyme kinetics or from competition with a known ligand. A high value points to lower affinity. Usually EC50 stands for the concentration giving half of the maximal effect.
